# Test results taken from PubChem BioAssay AID2060627 (Molecular Pharmacology Branch, DTP, NCI, 2025).
# Tested on: 156681-154-R-J1-PDC complex spheroid viability
# Assay: Anticancer human tumor 156681-154-R-J1-PDC patient-derived melanoma cell line growth inhibition [CLK]
# Details: second compound 10 µM; first compound 0.0316 µM; stronger effect = lower value
# Method in brief: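 Multi-cell-type spheroids combined patient-derived tumor cells with HUVEC endothelial cells and human mesenchymal stem cells. Paired agents were dosed in half-log steps down from about clinical Cmax, or from 10 microM where Cmax was unknown.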
# 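Note: spheroids exposed to the agents for seven days; 100% = DMSO vehicle control viability.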
row,Compound,"viability, T/C"
1,C=C(F)C(=O)N1CCN(c2nc(OCC3CCCN3C)nc3c2CCN(c2cccc4cccc(Cl)c24)C3)CC1CC#N (stereo not given) + CN1CCN(c2cc(C(=O)Nc3cc4cc(-c5cnn(C)c5)ccc4cn3)ccn2)CC1,0.17%
2,COc1ccc([C@@H](O)c2cc(-c3ncnc4cc(N5CCOCC5)ccc34)c(F)cc2Cl)nn1 + CN1CCN(c2cc(C(=O)Nc3cc4cc(-c5cnn(C)c5)ccc4cn3)ccn2)CC1,0.06%
3,CCCS(=O)(=O)Nc1ccc(F)c(C(=O)c2c[nH]c3ncc(-c4ccc(Cl)cc4)cc23)c1F + CNC(=O)c1ccc(Nc2nc(OC3CCCC3)c3c(-c4ccc5nc(C)oc5c4)c[nH]c3n2)c(OC)c1,34.9%
4,O=C(c1cc(Cc2n[nH]c(=O)c3ccccc23)ccc1F)N1CCN(C(=O)C2CC2)CC1 + CNC(=O)c1ccc(Nc2nc(OC3CCCC3)c3c(-c4ccc5nc(C)oc5c4)c[nH]c3n2)c(OC)c1,50.6%
5,CC(Nc1ccc2c(c1)OCCn1cc(N3C(=O)OCC3C(F)F)nc1-2)C(N)=O (stereo not given) + CN1CCN(c2cc(C(=O)Nc3cc4cc(-c5cnn(C)c5)ccc4cn3)ccn2)CC1,0.11%

# Same assay, conditions: second compound 10 µM; first compound 0.1 µM; stronger effect = lower value
row,Compound,"viability, T/C"
1,C=C(F)C(=O)N1CCN(c2nc(OCC3CCCN3C)nc3c2CCN(c2cccc4cccc(Cl)c24)C3)CC1CC#N (stereo not given) + CN1CCN(c2cc(C(=O)Nc3cc4cc(-c5cnn(C)c5)ccc4cn3)ccn2)CC1,0.19%
2,COc1ccc([C@@H](O)c2cc(-c3ncnc4cc(N5CCOCC5)ccc34)c(F)cc2Cl)nn1 + CN1CCN(c2cc(C(=O)Nc3cc4cc(-c5cnn(C)c5)ccc4cn3)ccn2)CC1,2.47%
3,CCCS(=O)(=O)Nc1ccc(F)c(C(=O)c2c[nH]c3ncc(-c4ccc(Cl)cc4)cc23)c1F + CNC(=O)c1ccc(Nc2nc(OC3CCCC3)c3c(-c4ccc5nc(C)oc5c4)c[nH]c3n2)c(OC)c1,34.3%
4,O=C(c1cc(Cc2n[nH]c(=O)c3ccccc23)ccc1F)N1CCN(C(=O)C2CC2)CC1 + CNC(=O)c1ccc(Nc2nc(OC3CCCC3)c3c(-c4ccc5nc(C)oc5c4)c[nH]c3n2)c(OC)c1,37%
5,CC(Nc1ccc2c(c1)OCCn1cc(N3C(=O)OCC3C(F)F)nc1-2)C(N)=O (stereo not given) + CN1CCN(c2cc(C(=O)Nc3cc4cc(-c5cnn(C)c5)ccc4cn3)ccn2)CC1,0.1%

# Same assay, conditions: second compound 10 µM; first compound 0.316 µM; stronger effect = lower value
row,Compound,"viability, T/C"
1,C=C(F)C(=O)N1CCN(c2nc(OCC3CCCN3C)nc3c2CCN(c2cccc4cccc(Cl)c24)C3)CC1CC#N (stereo not given) + CN1CCN(c2cc(C(=O)Nc3cc4cc(-c5cnn(C)c5)ccc4cn3)ccn2)CC1,1.71%
2,COc1ccc([C@@H](O)c2cc(-c3ncnc4cc(N5CCOCC5)ccc34)c(F)cc2Cl)nn1 + CN1CCN(c2cc(C(=O)Nc3cc4cc(-c5cnn(C)c5)ccc4cn3)ccn2)CC1,1.95%
3,CCCS(=O)(=O)Nc1ccc(F)c(C(=O)c2c[nH]c3ncc(-c4ccc(Cl)cc4)cc23)c1F + CNC(=O)c1ccc(Nc2nc(OC3CCCC3)c3c(-c4ccc5nc(C)oc5c4)c[nH]c3n2)c(OC)c1,22.1%
4,O=C(c1cc(Cc2n[nH]c(=O)c3ccccc23)ccc1F)N1CCN(C(=O)C2CC2)CC1 + CNC(=O)c1ccc(Nc2nc(OC3CCCC3)c3c(-c4ccc5nc(C)oc5c4)c[nH]c3n2)c(OC)c1,38.6%
5,CC(Nc1ccc2c(c1)OCCn1cc(N3C(=O)OCC3C(F)F)nc1-2)C(N)=O (stereo not given) + CN1CCN(c2cc(C(=O)Nc3cc4cc(-c5cnn(C)c5)ccc4cn3)ccn2)CC1,1.26%

# Same assay, conditions: second compound 10 µM; first compound 1 µM; stronger effect = lower value
row,Compound,"viability, T/C"
1,C=C(F)C(=O)N1CCN(c2nc(OCC3CCCN3C)nc3c2CCN(c2cccc4cccc(Cl)c24)C3)CC1CC#N (stereo not given) + CN1CCN(c2cc(C(=O)Nc3cc4cc(-c5cnn(C)c5)ccc4cn3)ccn2)CC1,0.23%
2,COc1ccc([C@@H](O)c2cc(-c3ncnc4cc(N5CCOCC5)ccc34)c(F)cc2Cl)nn1 + CN1CCN(c2cc(C(=O)Nc3cc4cc(-c5cnn(C)c5)ccc4cn3)ccn2)CC1,0.88%
3,CCCS(=O)(=O)Nc1ccc(F)c(C(=O)c2c[nH]c3ncc(-c4ccc(Cl)cc4)cc23)c1F + CNC(=O)c1ccc(Nc2nc(OC3CCCC3)c3c(-c4ccc5nc(C)oc5c4)c[nH]c3n2)c(OC)c1,32.5%
4,O=C(c1cc(Cc2n[nH]c(=O)c3ccccc23)ccc1F)N1CCN(C(=O)C2CC2)CC1 + CNC(=O)c1ccc(Nc2nc(OC3CCCC3)c3c(-c4ccc5nc(C)oc5c4)c[nH]c3n2)c(OC)c1,43.1%
5,CC(Nc1ccc2c(c1)OCCn1cc(N3C(=O)OCC3C(F)F)nc1-2)C(N)=O (stereo not given) + CN1CCN(c2cc(C(=O)Nc3cc4cc(-c5cnn(C)c5)ccc4cn3)ccn2)CC1,2.64%

# Same assay, conditions: second compound 10 µM; first compound 3.16 µM; stronger effect = lower value
row,Compound,"viability, T/C"
1,C=C(F)C(=O)N1CCN(c2nc(OCC3CCCN3C)nc3c2CCN(c2cccc4cccc(Cl)c24)C3)CC1CC#N (stereo not given) + CN1CCN(c2cc(C(=O)Nc3cc4cc(-c5cnn(C)c5)ccc4cn3)ccn2)CC1,0.23%
2,COc1ccc([C@@H](O)c2cc(-c3ncnc4cc(N5CCOCC5)ccc34)c(F)cc2Cl)nn1 + CN1CCN(c2cc(C(=O)Nc3cc4cc(-c5cnn(C)c5)ccc4cn3)ccn2)CC1,2.45%
3,CCCS(=O)(=O)Nc1ccc(F)c(C(=O)c2c[nH]c3ncc(-c4ccc(Cl)cc4)cc23)c1F + CNC(=O)c1ccc(Nc2nc(OC3CCCC3)c3c(-c4ccc5nc(C)oc5c4)c[nH]c3n2)c(OC)c1,23.4%
4,O=C(c1cc(Cc2n[nH]c(=O)c3ccccc23)ccc1F)N1CCN(C(=O)C2CC2)CC1 + CNC(=O)c1ccc(Nc2nc(OC3CCCC3)c3c(-c4ccc5nc(C)oc5c4)c[nH]c3n2)c(OC)c1,27.5%
5,CC(Nc1ccc2c(c1)OCCn1cc(N3C(=O)OCC3C(F)F)nc1-2)C(N)=O (stereo not given) + CN1CCN(c2cc(C(=O)Nc3cc4cc(-c5cnn(C)c5)ccc4cn3)ccn2)CC1,2.45%

# Same assay, conditions: second compound 10 µM; first compound 10 µM; stronger effect = lower value
row,Compound,"viability, T/C"
1,C=C(F)C(=O)N1CCN(c2nc(OCC3CCCN3C)nc3c2CCN(c2cccc4cccc(Cl)c24)C3)CC1CC#N (stereo not given) + CN1CCN(c2cc(C(=O)Nc3cc4cc(-c5cnn(C)c5)ccc4cn3)ccn2)CC1,0.8%
2,COc1ccc([C@@H](O)c2cc(-c3ncnc4cc(N5CCOCC5)ccc34)c(F)cc2Cl)nn1 + CN1CCN(c2cc(C(=O)Nc3cc4cc(-c5cnn(C)c5)ccc4cn3)ccn2)CC1,0.51%
3,CCCS(=O)(=O)Nc1ccc(F)c(C(=O)c2c[nH]c3ncc(-c4ccc(Cl)cc4)cc23)c1F + CNC(=O)c1ccc(Nc2nc(OC3CCCC3)c3c(-c4ccc5nc(C)oc5c4)c[nH]c3n2)c(OC)c1,12.2%
4,O=C(c1cc(Cc2n[nH]c(=O)c3ccccc23)ccc1F)N1CCN(C(=O)C2CC2)CC1 + CNC(=O)c1ccc(Nc2nc(OC3CCCC3)c3c(-c4ccc5nc(C)oc5c4)c[nH]c3n2)c(OC)c1,15.6%
5,CC(Nc1ccc2c(c1)OCCn1cc(N3C(=O)OCC3C(F)F)nc1-2)C(N)=O (stereo not given) + CN1CCN(c2cc(C(=O)Nc3cc4cc(-c5cnn(C)c5)ccc4cn3)ccn2)CC1,1.35%
